Test results as given in ChEMBL document CHEMBL5653631, “A Potent and Selective ULK1 Inhibitor Suppresses Autophagy and Sensitizes Cancer Cells to Nutrient Stress” (iScience, 2018).
Each block holds one compound with its values, some of them ahead of it.

Experiments:
[1] = target: Casein kinase I isoform gamma-1 (Homo sapiens) (UniProt Q9HCP0); test: Inhibition of human recombinant CK1g1 at 500 nM in presence of ATP by radiometric assay relative to control
[2] = target: Serine/threonine-protein kinase SIK2 (Homo sapiens) (UniProt Q9H0K1); test: Inhibition of human recombinant QIK at 500 nM in presence of ATP by radiometric assay relative to control
Sequence of Serine/threonine-protein kinase SIK2 (Homo sapiens) (Q9H0K1 whole entry, looked up, the tested form may be a part): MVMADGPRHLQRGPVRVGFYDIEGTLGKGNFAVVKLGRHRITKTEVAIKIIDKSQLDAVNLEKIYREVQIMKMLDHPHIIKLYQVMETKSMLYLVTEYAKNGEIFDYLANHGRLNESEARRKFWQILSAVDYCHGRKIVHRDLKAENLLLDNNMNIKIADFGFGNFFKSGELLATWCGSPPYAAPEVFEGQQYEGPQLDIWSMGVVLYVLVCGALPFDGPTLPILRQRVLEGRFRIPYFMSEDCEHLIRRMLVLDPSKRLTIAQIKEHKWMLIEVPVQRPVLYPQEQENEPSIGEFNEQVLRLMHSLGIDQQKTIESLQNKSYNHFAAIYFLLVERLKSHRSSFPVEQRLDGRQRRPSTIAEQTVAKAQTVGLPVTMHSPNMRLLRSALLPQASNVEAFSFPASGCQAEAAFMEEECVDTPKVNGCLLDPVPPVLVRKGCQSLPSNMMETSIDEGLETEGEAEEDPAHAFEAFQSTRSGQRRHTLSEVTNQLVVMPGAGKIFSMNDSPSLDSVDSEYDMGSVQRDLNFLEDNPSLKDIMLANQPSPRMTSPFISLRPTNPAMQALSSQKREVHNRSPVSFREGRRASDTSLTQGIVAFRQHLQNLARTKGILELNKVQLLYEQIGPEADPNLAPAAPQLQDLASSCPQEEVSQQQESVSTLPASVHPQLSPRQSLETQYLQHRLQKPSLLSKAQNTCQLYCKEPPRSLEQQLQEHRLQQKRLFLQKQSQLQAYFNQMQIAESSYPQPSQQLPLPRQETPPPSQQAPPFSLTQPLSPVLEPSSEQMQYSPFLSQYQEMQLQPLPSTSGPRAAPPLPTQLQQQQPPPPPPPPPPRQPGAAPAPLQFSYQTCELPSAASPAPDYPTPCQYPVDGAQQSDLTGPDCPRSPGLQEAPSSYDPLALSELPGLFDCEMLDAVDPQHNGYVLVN

[3] = target: PAS domain-containing serine/threonine-protein kinase (Homo sapiens) (UniProt Q96RG2); test: Inhibition of human recombinant PASK at 500 nM related to control ULK1
[4] = target: T1, Testis-specific serine/threonine-protein kinase 4 (Homo sapiens) (UniProt Q6SA08); test: Inhibition of human recombinant TSSK4 at 40 nM in presence of ATP by radiometric assay relative to control
T1 sequence (whole entry): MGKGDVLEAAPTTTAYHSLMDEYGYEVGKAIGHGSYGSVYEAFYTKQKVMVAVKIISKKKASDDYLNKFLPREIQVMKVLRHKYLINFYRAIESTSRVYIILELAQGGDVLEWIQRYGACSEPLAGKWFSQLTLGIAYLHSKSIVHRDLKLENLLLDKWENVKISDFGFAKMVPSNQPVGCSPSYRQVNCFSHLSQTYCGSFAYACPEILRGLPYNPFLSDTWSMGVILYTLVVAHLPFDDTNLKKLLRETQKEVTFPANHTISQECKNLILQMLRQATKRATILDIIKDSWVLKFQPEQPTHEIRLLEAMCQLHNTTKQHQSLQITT

[5] = target: T2, Inhibitor of nuclear factor kappa-B kinase subunit beta (Homo sapiens) (UniProt O14920); test: Inhibition of human recombinant IKKb at 40 nM in presence of ATP by radiometric assay relative to control
T2 sequence (whole entry): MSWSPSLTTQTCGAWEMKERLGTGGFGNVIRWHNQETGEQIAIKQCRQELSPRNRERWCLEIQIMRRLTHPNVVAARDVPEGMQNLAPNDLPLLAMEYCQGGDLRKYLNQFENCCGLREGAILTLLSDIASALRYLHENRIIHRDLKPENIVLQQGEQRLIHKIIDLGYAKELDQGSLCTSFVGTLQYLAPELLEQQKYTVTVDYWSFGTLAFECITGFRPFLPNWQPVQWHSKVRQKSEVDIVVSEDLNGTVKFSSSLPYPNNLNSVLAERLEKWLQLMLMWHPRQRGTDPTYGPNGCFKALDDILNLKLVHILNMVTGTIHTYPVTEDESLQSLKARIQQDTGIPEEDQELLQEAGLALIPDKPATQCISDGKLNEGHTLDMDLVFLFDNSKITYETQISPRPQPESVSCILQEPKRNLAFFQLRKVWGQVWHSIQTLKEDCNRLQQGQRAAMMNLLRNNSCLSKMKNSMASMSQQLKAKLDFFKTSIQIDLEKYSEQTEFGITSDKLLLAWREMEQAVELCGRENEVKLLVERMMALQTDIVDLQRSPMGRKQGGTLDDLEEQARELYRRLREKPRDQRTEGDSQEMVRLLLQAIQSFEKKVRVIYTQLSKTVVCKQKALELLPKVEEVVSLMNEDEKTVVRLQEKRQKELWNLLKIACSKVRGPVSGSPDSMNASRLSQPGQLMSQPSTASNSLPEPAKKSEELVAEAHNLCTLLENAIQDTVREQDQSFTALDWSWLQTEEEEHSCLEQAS

[6] = target: T3, Serine/threonine-protein kinase Nek3 (Homo sapiens) (UniProt P51956); test: Inhibition of human recombinant NEK3 at 15 nM in presence of ATP by radiometric assay relative to control
T3 sequence (whole entry): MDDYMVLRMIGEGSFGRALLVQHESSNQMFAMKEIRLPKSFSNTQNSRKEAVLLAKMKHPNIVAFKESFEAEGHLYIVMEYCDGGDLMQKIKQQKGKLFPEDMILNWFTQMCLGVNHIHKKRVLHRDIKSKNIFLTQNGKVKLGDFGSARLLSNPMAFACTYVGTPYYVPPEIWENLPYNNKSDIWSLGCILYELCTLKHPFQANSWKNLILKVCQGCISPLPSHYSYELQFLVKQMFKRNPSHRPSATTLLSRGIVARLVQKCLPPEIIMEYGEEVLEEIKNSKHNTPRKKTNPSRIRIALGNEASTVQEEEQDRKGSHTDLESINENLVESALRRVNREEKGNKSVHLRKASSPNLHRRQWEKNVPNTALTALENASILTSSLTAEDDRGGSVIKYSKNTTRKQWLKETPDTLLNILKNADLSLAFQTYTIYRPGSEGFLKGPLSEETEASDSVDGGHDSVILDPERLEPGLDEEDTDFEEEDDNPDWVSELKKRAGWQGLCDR

[7] = target: T4, Protein kinase C zeta type (Homo sapiens) (UniProt Q05513); test: Inhibition of human recombinant PKCz at 15 nM in presence of ATP by radiometric assay relative to control
T4 sequence (whole entry): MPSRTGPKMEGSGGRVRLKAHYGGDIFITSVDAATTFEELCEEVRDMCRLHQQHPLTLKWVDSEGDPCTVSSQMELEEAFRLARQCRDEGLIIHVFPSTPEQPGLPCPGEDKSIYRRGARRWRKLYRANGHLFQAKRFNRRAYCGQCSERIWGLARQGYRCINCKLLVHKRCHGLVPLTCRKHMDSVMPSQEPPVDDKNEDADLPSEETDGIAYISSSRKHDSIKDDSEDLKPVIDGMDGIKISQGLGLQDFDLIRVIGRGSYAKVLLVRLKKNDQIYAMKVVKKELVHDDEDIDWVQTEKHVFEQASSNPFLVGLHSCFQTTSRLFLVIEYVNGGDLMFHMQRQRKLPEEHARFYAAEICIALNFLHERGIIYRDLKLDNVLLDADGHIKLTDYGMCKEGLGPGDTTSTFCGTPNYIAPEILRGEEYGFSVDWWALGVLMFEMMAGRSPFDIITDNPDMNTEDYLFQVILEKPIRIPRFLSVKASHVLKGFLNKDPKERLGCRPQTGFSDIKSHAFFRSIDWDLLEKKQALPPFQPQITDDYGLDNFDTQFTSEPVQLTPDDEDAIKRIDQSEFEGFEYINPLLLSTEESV

[8] = target: SRSF protein kinase 2 (Homo sapiens) (UniProt P78362); test: Inhibition of human recombinant SRPK2 at 15 nM related to control ULK1
Sequence of SRSF protein kinase 2 (Homo sapiens) (P78362 whole entry, looked up, the tested form may be a part): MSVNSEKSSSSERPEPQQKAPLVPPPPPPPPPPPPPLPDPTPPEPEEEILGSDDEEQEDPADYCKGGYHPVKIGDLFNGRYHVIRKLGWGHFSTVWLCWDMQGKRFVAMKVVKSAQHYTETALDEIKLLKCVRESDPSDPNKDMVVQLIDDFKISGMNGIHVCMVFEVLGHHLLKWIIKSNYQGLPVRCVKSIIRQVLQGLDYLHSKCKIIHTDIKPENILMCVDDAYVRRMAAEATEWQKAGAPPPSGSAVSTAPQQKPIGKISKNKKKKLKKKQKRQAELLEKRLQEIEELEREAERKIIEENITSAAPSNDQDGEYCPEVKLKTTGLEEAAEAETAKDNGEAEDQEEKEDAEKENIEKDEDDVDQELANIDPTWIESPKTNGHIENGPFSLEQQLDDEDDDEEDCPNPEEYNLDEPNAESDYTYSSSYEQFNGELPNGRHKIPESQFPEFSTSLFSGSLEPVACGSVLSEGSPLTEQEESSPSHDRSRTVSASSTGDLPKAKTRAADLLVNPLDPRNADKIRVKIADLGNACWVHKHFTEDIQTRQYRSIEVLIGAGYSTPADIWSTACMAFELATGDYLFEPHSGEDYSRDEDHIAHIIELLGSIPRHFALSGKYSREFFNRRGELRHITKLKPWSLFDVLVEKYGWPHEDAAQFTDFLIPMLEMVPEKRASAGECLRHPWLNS

[9] = target: Epithelial discoidin domain-containing receptor 1 (Homo sapiens) (UniProt Q08345); test: Inhibition of human recombinant DDR1 at 15 nM related to control ULK1
Sequence of Epithelial discoidin domain-containing receptor 1 (Homo sapiens) (Q08345 whole entry, the tested form may be a part): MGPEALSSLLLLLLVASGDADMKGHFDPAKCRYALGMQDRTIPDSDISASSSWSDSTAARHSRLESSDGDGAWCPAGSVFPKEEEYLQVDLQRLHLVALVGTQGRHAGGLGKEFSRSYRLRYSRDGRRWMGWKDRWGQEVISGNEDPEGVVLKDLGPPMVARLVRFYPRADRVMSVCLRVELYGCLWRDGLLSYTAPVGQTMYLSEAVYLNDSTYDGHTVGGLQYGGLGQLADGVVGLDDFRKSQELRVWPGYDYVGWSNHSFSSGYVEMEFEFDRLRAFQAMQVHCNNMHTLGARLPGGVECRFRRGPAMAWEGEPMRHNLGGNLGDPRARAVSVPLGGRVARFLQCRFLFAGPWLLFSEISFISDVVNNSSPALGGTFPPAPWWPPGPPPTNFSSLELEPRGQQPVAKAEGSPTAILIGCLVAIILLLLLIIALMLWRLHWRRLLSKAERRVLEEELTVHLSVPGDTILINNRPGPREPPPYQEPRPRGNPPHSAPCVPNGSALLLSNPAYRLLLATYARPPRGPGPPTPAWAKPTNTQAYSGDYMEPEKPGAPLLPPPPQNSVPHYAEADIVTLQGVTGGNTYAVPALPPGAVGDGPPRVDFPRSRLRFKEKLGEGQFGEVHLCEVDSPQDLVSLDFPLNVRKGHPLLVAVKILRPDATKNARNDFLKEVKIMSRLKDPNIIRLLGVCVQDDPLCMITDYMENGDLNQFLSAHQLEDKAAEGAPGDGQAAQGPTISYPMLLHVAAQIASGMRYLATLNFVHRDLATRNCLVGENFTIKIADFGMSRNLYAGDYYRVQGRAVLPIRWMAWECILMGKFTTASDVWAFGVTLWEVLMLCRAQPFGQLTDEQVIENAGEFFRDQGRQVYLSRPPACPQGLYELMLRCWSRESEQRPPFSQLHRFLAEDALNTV

[10] = target: Rho-associated protein kinase 2 (Homo sapiens) (UniProt O75116); test: Inhibition of human recombinant ROCK2 at 15 nM in presence of ATP by radiometric assay relative to control
Sequence of Rho-associated protein kinase 2 (Homo sapiens) (O75116 whole entry, looked up): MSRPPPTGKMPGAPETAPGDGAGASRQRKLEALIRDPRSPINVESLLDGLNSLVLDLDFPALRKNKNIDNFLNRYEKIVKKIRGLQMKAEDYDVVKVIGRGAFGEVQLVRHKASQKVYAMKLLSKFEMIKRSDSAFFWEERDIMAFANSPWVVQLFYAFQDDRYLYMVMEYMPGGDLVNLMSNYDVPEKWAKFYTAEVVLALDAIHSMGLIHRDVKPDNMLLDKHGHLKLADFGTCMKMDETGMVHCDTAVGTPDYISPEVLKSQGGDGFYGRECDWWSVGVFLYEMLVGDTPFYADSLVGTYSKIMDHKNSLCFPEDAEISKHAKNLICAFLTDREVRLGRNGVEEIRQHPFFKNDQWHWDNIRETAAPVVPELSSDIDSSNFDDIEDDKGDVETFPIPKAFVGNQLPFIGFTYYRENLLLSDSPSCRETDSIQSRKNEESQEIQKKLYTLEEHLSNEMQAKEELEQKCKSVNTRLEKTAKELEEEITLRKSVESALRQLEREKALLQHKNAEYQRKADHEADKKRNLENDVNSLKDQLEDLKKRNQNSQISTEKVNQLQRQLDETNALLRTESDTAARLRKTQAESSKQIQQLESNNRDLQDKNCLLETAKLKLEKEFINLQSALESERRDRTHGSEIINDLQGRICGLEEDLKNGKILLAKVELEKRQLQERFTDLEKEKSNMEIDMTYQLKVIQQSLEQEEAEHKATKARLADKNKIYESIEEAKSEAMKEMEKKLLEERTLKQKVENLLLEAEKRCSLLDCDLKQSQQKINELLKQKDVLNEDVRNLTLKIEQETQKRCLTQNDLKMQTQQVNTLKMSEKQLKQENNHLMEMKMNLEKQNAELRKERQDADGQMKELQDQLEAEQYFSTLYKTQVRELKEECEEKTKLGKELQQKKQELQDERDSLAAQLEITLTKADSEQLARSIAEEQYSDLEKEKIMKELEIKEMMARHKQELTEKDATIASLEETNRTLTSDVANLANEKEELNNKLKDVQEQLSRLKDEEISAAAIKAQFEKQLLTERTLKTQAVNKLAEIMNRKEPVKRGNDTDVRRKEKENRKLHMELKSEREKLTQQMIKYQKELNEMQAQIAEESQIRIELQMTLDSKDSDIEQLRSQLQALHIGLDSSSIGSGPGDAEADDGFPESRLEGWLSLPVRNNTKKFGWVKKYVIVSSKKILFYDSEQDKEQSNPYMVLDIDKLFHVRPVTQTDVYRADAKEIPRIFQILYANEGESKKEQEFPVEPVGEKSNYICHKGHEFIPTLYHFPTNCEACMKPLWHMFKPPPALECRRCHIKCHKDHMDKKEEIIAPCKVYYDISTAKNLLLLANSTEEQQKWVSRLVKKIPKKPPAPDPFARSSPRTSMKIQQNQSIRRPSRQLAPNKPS

Sequence of Casein kinase I isoform gamma-1 (Homo sapiens) (Q9HCP0 whole entry, looked up, canonical isoform): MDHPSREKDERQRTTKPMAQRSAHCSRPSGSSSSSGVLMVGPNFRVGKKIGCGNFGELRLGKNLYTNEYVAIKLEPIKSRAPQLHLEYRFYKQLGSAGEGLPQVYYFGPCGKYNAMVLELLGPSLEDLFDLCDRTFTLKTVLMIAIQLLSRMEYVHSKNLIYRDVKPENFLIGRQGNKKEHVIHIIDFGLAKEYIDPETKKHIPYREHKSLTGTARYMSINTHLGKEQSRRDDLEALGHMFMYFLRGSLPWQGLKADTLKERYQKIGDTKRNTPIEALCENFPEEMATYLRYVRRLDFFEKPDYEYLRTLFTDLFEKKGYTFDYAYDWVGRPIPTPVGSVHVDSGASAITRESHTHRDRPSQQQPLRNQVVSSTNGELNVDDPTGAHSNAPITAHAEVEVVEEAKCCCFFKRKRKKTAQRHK

- inhibition [1]: 0%
- inhibition [2]: 0%
- fold change (FC) [3]: 0.14
Structure (SMILES): CNC(=O)c1ccccc1Oc1nc(Nc2cc(OC)c(OC)c(OC)c2)ncc1Br

- inhibition [4]: 0%
- inhibition [5]: 0%
Structure (SMILES): O=C(N[C@@H](C1CC1)C(F)(F)F)c1cc(-c2cnn3cc(-c4ccc(F)cc4)cnc23)cs1

- inhibition [6]: 1%
- inhibition [7]: 0%
- fold change (FC) [8]: 0
- fold change (FC) [9]: 0.89
- inhibition [10]: 0%
Structure (SMILES): CC(C)[C@H](NC(=O)c1cc(-c2cnn3cc(-c4ccc(OCCN5CCCCC5)cc4)cnc23)cs1)C(F)(F)F
